Test results taken from patent publication US20260272895A1, “METHODS AND KITS FOR DELIVERY OF COMPOUNDS INTO CELLS” (Yale University, priority 2023, published 2026).

Assays:
Slco1a4 = biological target: T1, Slco1a4 (Mus musculus, UniProt Q9EP96); experiment: Compound uptake in HEK293 cells transfected with Slco1a4; type: cell-based; design: FLAG; expressed in transfected cells
T1 sequence (Q9EP96 1-670): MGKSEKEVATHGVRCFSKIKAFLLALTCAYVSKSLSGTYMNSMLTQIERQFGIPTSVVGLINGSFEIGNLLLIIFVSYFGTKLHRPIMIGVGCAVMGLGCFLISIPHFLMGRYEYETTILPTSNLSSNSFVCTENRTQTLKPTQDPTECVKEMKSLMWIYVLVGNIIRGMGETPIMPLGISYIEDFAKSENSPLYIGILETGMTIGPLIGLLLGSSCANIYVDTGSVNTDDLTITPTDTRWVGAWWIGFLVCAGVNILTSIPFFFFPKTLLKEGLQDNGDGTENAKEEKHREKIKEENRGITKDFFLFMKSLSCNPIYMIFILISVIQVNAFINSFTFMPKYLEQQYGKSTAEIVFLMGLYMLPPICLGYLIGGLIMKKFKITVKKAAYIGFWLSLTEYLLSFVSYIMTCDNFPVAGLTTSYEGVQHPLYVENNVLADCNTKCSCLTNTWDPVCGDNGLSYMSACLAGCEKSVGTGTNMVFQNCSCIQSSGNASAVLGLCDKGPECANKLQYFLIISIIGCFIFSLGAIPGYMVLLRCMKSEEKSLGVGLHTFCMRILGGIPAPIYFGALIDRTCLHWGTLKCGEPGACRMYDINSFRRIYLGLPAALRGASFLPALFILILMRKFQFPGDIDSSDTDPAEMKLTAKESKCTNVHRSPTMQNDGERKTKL
Protocol: (§1) HEK293 cells are cultured and seeded at ~60% confluency in 24-well plates and are transiently transfected with 250 ng of a candidate transporter and 1 μL transfection reagent (JetPRIME). After 2 days, cells are washed and novel fluorescent probes at different concentrations are added to the transport medium and incubated at 37° C., for at least 30 minutes. To terminate the transport, cells are washed with PBS and fixed with 4% paraformaldehyde. The colocalization of probe uptake and cells expressing the transporters is investigated by immunostaining the transporter which has a fused FLAG tag, using anti-FLAG 488. Before confocal imaging, nuclei are labeled with Hoechst 33342 and cells are mounted and imaged on a Leica SP8 confocal microscope.
(§2) For in vitro experiments, HEK293 cells were cultured and seeded in 24-well plates, reaching approximately 60% confluency. For transient transfection, 250 ng of a candidate transporter plasmid and 1 μL of transfection reagent (JetPRIME) were added to the cells. After a 2-day incubation period, the cells were washed, and novel fluorescent probes were introduced into the transport medium at various concentrations. The cells were then incubated at 37° C., for a minimum of 30 minutes to allow for uptake. To stop the transport process, the cells were washed with PBS and fixed using 4% paraformaldehyde. Immunostaining of the transporter, which was fused with a FLAG tag, was performed using an anti-FLAG 488 antibody. Before confocal imaging, the cell nuclei were labeled with Hoechst 33342. Finally, the cells were mounted and imaged using a Leica SP8 confocal microscope.

SLCO1A2 = biological target: T2, SLCO1A2 (Homo sapiens, UniProt P46721); experiment: Compound uptake in HEK293 cells transfected with SLCO1A2; type: cell-based; design: FLAG
T2 sequence (P46721 1-670): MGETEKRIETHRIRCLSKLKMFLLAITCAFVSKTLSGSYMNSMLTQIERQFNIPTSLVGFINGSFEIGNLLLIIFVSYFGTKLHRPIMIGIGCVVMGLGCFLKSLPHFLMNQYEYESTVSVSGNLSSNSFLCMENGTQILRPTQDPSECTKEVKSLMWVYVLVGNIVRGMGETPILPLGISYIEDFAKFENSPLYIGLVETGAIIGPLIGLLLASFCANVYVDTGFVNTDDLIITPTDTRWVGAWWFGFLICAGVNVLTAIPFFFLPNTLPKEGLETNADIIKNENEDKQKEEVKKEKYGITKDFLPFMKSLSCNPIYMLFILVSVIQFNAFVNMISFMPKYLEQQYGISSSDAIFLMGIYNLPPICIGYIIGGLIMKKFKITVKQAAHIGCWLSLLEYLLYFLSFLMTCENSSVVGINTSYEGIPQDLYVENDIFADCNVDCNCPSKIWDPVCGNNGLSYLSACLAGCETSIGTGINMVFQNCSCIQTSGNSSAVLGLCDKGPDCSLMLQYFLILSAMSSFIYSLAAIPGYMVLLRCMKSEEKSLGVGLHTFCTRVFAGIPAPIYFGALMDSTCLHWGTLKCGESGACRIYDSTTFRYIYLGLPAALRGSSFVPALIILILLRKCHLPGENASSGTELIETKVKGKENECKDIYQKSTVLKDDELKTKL
Protocol: as §1, §2

SMILES: O=S(=O)([O-])c1cc(S(=O)(=O)O)ccc1C1=c2cc3c4c(c2Oc2cc(Br)ccc21)CCC[N+]=4CCC3 [Compound 1, 2-(12-bromo-1,2,3,5,6,7-hexahydrochromeno[2,3-f]pyrido[3,2,1-ij]quinolin-4-ium-9-yl)-5-sulfobenzenesulfonate]
- uptake in Slco1a4 transfected HEK293 cells (Slco1a4; concentration not given): only those cells expressing SLCO1A4 (as evidenced by anti-FLAG labeling-green) take up compound 1
- uptake in SLCO1A2 transfected HEK293 cells (SLCO1A2; concentration not given): only those cells expressing the carrier SLCO1A2 (as evidenced by anti-FLAG labeling-green) take up compound 1

SMILES: COc1cc2c(c(OC)c1OC)-c1ccc(OC)c(=O)cc1C(NS(=O)(=O)c1ccc(-c3c4ccc(N(C)C)cc4[o+]c4cc(N(C)C)ccc34)c(S(=O)(=O)[O-])c1)CC2 (stereo not shown) [Compound 47, 2-(3,6-bis(dimethylamino)xanthylium-9-yl)-5-(N-(1,2,3,10-tetramethoxy-9-oxo-5,6,7,9-tetrahydrobenzo[a]heptalen-7-yl)sulfamoyl)benzenesulfonate]
- uptake in Slco1a4 transfected HEK293 cells (Slco1a4; 10 μM): robust and selective uptake
- uptake in SLCO1A2 transfected HEK293 cells (SLCO1A2; 10 μM): robust and selective uptake
